Values quoted from earlier work, collected in article PMC6172068 (Cancer Science, 2018).

Experiments:
AML [1] = settings: single agent; cited from earlier work
[2] = system: FLT3 mutation-positive R/R AML; settings: cited from earlier work
AML [3] = settings: sorafenib plus intensive chemotherapy, patients aged <60 years; cited from earlier work

SMILES: CO[C@@H]1[C@H](N(C)C(=O)c2ccccc2)C[C@H]2O[C@]1(C)n1c3ccccc3c3c4c(c5c6ccccc6n2c5c31)C(=O)NC4 [midostaurin]
- CR (AML [1]): not achieved

SMILES: CC1(COc2ccc3c(c2)ncn3-c2ccc3cccc(N4CCC(N)CC4)c3n2)COC1 [crenolanib]
- antileukemic activity [2]: strong antileukemic activity

SMILES: CNC(=O)c1cc(Oc2ccc(NC(=O)Nc3ccc(Cl)c(C(F)(F)F)c3)cc2)ccn1 [sorafenib]
- 3-year event-free survival rate (AML [3]): 40%
